In patent US20260078108A1, “SOLID FORMS OF A ROCK INHIBITOR” (REDX PHARMA PLC, priority 2022, published 2026):

What was measured:
PKN1/PRK1 = PKN1/PRK1 (Homo sapiens, UniProt Q16512); assay: Kinase panel 33P-ATP filter assay, PKN1/PRK1; format: biochemical; details: HCl salt tested; ATP Conc. 15 μM (Km); read-out: Compound IC50 (nM) PKN1/PRK1
Description: (§1) The HCl salts of S enantiomer and the R enantiomer of compound A were tested against a panel of kinases.
(§2) Compounds were received as powder and resuspended to 10 mM DMSO stock. Compounds were tested in 10-dose IC50 mode with a 3-fold serial dilution starting at 10 μM. Control compound, staurosporine, was tested in 10-dose IC50 mode with 4-fold serial dilution starting at 20 μM.
(§3) Reaction Conditions: Buffer Conditions: 20 mM HEPES ((4-(2-hydroxyethyl)-1-piperazineethanesulfonic acid; pH 7.5), 10 mM MgCl2, 1 mM EGTA (Ethyleneglycol-bis(p-aminoethyl)-N,N,N′,N′-tetraacetic Acid), 0.01% Brij35, 0.02 mg/ml BSA (Bovine serum albumin), 0.1 mM Na3VO4, 2 mM DTT (Dithiothreitol), 1% DMSO. Reaction Procedure: 1. Prepare indicated substrate in freshly prepared reaction buffer. 2. Deliver required cofactors to the substrate solution above. 3. Deliver indicated kinase into the substrate solution and mix gently. 4. Deliver compounds in DMSO into the kinase reaction mixture utilizing acoustic technology (Echo550). 5. Deliver ^33P-ATP (specific activity 0.01 μCi/μl final) into the reaction mixture to initiate the reaction. 6. Incubate kinase reaction for 120 minutes at room temperature. 7. […] Data Analysis: Kinase activity data were expressed as the percent remaining kinase activity in test samples compared to vehicle (dimethyl sulfoxide) reactions. […]

PKCtheta = PKCtheta (Homo sapiens, UniProt Q04759); assay: Kinase panel 33P-ATP filter assay, PKCtheta; format: biochemical; details: HCl salt tested; ATP Conc. 30 μM (Km); read-out: Compound IC50 (nM) PKCtheta
Description: as §1, §2, §3

CB1 (h) = biological target: T1, CB1 (h) (Homo sapiens, UniProt P21554); assay: CEREP panel CB1 (h) agonist effect, cAMP HTRF; format: cell-based; details: HCl salt tested, CHO cells
T1 construct: expressed in transfected cells; host or cells: CHO cells
Text: (§4) The use of in vitro pharmacological screening against a diverse range of targets (receptors, ion channels, enzymes and transporters) is used to identify undesirable off-target activity that may cause adverse drug reactions in humans. Screening panels (e.g. SafetyScreen44™ Panel, Eurofins) comprise a selection of off-targets linked with known issues in humans that could hinder or halt the development of drug candidates or market withdrawal if discovered after a drug is approved. The HCl salts of the S enantiomer and the R enantiomer of compound A were tested against a panel of such targets.
(§5) The tests were carried out according to the methods described in the following tables and indicated literature references.

LATS2 = biological target: T2, LATS2 (Homo sapiens, UniProt Q9NRM7); assay: Kinase panel 33P-ATP filter assay, LATS2; format: biochemical; details: HCl salt tested; ATP Conc. 30 μM (Km); read-out: Compound IC50 (nM) LATS2
T2 sequence (Q9NRM7 1-1088): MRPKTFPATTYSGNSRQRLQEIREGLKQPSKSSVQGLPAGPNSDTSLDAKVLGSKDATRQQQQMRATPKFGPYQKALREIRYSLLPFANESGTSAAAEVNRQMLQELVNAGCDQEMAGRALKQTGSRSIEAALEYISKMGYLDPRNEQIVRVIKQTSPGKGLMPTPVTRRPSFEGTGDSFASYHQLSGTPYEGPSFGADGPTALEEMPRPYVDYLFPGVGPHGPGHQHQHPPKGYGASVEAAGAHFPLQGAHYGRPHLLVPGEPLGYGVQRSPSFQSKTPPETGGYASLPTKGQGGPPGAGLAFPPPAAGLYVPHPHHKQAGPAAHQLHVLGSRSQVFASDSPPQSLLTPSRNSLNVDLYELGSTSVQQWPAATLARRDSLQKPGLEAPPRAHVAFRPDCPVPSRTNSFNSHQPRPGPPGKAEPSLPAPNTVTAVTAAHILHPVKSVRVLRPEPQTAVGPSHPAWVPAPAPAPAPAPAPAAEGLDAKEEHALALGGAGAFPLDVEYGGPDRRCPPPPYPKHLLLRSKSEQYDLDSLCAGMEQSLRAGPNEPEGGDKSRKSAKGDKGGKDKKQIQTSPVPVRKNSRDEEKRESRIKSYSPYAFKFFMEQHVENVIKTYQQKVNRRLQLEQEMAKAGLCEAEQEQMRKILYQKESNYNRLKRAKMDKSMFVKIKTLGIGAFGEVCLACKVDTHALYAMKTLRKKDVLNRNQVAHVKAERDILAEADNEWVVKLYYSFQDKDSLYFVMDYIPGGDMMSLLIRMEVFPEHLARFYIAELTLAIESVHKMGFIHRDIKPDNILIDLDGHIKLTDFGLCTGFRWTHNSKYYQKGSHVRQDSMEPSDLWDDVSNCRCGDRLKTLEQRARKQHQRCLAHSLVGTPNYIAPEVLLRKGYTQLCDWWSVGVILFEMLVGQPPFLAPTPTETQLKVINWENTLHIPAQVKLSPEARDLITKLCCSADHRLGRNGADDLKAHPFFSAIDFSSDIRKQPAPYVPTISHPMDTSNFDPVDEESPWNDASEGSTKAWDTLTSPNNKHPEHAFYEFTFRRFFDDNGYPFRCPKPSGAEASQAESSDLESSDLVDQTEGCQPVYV
Description: as §1, §2, §3

PKCd = PKCd (Homo sapiens, UniProt Q05655); assay: Kinase panel 33P-ATP filter assay, PKCd; format: biochemical; details: HCl salt tested; ATP Conc. 10 μM (Km); read-out: Compound IC50 (nM) PKCd
Description: as §1, §2, §3

M2 (h) = biological target: T3, M2 (h) (Homo sapiens, UniProt P08172); assay: CEREP panel M2 (h) agonist effect, cAMP HTRF; format: cell-based; details: HCl salt tested, CHO cells
T3 construct: expressed in transfected cells; host or cells: CHO cells
T3 sequence (P08172 1-466): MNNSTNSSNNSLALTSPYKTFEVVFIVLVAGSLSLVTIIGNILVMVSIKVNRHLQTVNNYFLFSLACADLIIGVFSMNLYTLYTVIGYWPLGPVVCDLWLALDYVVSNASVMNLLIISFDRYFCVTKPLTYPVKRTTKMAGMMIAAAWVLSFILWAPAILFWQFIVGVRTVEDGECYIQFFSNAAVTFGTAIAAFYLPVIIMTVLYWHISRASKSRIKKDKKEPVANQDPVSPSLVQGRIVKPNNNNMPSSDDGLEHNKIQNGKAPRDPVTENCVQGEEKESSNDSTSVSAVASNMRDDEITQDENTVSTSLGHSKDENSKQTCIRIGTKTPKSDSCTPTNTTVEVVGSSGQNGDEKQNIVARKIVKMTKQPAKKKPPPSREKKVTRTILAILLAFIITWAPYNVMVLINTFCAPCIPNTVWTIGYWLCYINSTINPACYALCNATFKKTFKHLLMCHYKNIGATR
Text: as §4, §5

T1 sequence (P21554 whole entry): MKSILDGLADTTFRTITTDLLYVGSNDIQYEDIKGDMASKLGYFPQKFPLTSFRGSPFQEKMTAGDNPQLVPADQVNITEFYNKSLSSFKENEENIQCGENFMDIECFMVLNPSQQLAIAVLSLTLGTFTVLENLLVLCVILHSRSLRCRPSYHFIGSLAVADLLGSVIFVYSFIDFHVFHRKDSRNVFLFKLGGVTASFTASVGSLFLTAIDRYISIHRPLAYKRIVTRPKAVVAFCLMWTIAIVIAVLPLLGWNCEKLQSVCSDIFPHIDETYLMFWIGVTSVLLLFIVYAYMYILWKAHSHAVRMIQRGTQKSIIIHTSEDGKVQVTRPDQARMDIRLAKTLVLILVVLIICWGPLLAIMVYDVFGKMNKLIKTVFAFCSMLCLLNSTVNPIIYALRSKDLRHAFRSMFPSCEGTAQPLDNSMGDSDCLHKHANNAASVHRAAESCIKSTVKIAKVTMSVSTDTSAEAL
Chain of PKCd (Q05655 whole entry, species assumed): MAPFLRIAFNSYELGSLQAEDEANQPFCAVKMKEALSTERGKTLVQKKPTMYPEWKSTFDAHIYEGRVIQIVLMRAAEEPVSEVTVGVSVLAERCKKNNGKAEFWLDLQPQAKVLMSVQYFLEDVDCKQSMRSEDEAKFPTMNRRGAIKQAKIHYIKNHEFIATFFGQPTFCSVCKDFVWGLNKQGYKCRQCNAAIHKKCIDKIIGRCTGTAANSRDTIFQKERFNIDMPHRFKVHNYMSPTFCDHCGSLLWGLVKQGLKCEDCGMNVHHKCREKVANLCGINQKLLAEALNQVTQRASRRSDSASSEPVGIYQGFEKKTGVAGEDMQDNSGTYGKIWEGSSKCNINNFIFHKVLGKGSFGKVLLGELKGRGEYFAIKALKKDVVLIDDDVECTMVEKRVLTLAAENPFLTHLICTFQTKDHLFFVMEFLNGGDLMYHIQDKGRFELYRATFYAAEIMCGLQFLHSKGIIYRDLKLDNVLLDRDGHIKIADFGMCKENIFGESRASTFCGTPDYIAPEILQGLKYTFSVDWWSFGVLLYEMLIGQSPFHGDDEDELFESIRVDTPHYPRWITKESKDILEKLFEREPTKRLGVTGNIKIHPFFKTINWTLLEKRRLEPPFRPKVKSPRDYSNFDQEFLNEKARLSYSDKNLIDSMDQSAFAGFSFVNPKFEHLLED
Chain of PKCtheta (Q04759 whole entry): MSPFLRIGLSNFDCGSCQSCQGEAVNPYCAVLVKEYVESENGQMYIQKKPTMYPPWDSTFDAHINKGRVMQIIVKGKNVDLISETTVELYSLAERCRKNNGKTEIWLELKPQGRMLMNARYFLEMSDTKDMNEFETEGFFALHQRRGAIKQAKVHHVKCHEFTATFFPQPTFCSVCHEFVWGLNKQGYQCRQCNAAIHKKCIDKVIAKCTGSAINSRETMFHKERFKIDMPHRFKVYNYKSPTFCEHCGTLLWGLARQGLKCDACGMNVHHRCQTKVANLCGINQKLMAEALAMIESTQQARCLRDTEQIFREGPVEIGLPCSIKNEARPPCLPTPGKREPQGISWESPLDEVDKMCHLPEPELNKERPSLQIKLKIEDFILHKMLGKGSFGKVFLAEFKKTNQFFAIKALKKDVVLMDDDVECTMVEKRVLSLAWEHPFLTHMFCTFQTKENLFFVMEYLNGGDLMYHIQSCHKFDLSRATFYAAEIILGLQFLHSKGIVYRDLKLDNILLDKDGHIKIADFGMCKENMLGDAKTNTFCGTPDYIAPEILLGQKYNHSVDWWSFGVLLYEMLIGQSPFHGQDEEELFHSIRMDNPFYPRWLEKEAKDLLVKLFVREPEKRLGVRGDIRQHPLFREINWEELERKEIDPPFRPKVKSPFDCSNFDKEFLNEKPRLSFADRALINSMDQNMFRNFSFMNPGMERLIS
Chain of PKN1/PRK1 (Q16512 whole entry): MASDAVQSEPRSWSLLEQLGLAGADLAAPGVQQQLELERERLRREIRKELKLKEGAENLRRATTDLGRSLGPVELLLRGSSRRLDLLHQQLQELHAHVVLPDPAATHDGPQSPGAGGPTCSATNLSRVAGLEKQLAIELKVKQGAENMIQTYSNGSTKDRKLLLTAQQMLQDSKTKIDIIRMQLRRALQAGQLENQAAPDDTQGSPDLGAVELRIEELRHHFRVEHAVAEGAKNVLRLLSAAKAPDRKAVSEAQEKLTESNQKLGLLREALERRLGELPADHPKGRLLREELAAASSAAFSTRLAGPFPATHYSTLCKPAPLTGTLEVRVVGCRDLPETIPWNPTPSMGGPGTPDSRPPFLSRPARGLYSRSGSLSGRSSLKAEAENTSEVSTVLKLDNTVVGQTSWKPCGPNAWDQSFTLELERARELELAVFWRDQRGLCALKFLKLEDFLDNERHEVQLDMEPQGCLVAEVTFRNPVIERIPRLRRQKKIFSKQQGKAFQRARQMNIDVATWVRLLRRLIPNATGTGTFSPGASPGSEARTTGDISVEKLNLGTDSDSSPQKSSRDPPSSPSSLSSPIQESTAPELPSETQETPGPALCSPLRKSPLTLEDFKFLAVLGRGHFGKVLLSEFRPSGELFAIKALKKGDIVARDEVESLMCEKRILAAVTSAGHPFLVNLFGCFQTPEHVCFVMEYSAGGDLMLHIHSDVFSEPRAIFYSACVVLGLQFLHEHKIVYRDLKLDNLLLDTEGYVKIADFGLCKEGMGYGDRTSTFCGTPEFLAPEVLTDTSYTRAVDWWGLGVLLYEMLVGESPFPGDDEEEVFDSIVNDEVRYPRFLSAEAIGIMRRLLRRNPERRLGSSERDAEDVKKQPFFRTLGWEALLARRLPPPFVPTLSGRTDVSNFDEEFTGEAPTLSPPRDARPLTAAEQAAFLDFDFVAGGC

| SMILES | IC50 (PKN1/PRK1) [nM] | IC50 (PKCtheta) [nM] | CB1 (h) (agonist effect) (EC50) (CB1 (h)) | IC50 (LATS2) [nM] | IC50 (PKCd) [nM] | EC50 (M2 (h)) [µM] |
| --- | --- | --- | --- | --- | --- | --- |
| NCc1ccc(C(=O)Nc2ccncc2F)cc1-c1cccc(C(=O)Nc2ccc(SC[C@@H]3CCOC3=O)cc2)c1 [R-enantiomer] | 7.9 | 4.4 | Inactive | 42.7 | < 0.5 | > 10 |
| NCc1ccc(C(=O)Nc2ccncc2F)cc1-c1cccc(C(=O)Nc2ccc(SC[C@H]3CCOC3=O)cc2)c1 [S-enantiomer] | 8.5 | 9.9 | Inactive | 33.3 | 0.9 | 93 |
